# Experimental data from the supplement of paper PMC10307832.
# Legend:
# Test in all cases: relative viability (nuclei count vs DMSO), 5 days (fraction); higher = more cells survive
# Etoposide + Pemetrexed = compound: COc1cc([C@@H]2c3cc4c(cc3[C@@H](O[C@@H]3O[C@@H]5CO[C@@H](C)O[C@H]5[C@H](O)[C@H]3O)[C@H]3COC(=O)[C@H]23)OCO4)cc(OC)c1O [Etoposide] + Nc1nc2[nH]cc(CCc3ccc(C(=O)N[C@@H](CCC(=O)O)C(=O)O)cc3)c2c(=O)[nH]1 [Pemetrexed] (partner 0.2 µM)
# Method in brief: (§1)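 Lung cancer cell lines were seeded in 1536-well plates and dosed by pin tool the next day, with either a single drug or a fixed anchor-drug dose combined with five library-drug doses (not always all listed) spaced in √10 steps. Five days later, one step fixed the cells and stained their nuclei (final 0.05% Triton X-100, 1% formaldehyde, 1 ug/ml Hoechst), and nuclei were counted on 4× images. Relative viability is the nuclei count in treated wells divided by the count in vehicle wells, and each value is the median of duplicate plates.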
# Etoposide + Phenformin = compound: COc1cc([C@@H]2c3cc4c(cc3[C@@H](O[C@@H]3O[C@@H]5CO[C@@H](C)O[C@H]5[C@H](O)[C@H]3O)[C@H]3COC(=O)[C@H]23)OCO4)cc(OC)c1O [Etoposide] + N=C(N)NC(=N)NCCc1ccccc1 [Phenformin] (partner 250 µM)
# Method in brief: as §1
# Bleomycin + Crizotinib = compound: CC1=C(N=C(N=C1N)[C@H](CC(=O)N)NC[C@@H](C(=O)N)N)C(=O)N[C@@H]([C@H](C2=CN=CN2)OC3C(C(C(C(O3)CO)O)O)OC4C(C(C(C(O4)CO)O)OC(=O)N)O)C(=O)N[C@H](C)[C@H]([C@H](C)C(=O)N[C@@H]([C@@H](C)O)C(=O)NCCC5=NC(=CS5)C6=NC(=CS6)C(=O)NCCC[S+](C)C)O [Bleomycin] + C[C@@H](Oc1cc(-c2cnn(C3CCNCC3)c2)cnc1N)c1c(Cl)ccc(F)c1Cl [Crizotinib] (partner 1 µM); conditions: main component drawn
# Method in brief: as §1
# Bleomycin + OSI-027 = compound: CC1=C(N=C(N=C1N)[C@H](CC(=O)N)NC[C@@H](C(=O)N)N)C(=O)N[C@@H]([C@H](C2=CN=CN2)OC3C(C(C(C(O3)CO)O)O)OC4C(C(C(C(O4)CO)O)OC(=O)N)O)C(=O)N[C@H](C)[C@H]([C@H](C)C(=O)N[C@@H]([C@@H](C)O)C(=O)NCCC5=NC(=CS5)C6=NC(=CS6)C(=O)NCCC[S+](C)C)O [Bleomycin] + COc1cccc2cc(-c3nc([C@H]4CC[C@H](C(=O)O)CC4)n4ncnc(N)c34)[nH]c12 [OSI-027] (partner 0.5 µM); conditions: main component drawn
# Method in brief: as §1
cell line,measurement,setting,value
UMC-11,relative viability,Etoposide + Pemetrexed; first compound 0.01 µM,0.809
same,relative viability,Etoposide + Pemetrexed; first compound 0.03162 µM,0.789
same,relative viability,Etoposide + Pemetrexed; first compound 0.1 µM,0.768
same,relative viability,Etoposide + Pemetrexed; first compound 0.3162 µM,0.53
same,relative viability,Etoposide + Pemetrexed; first compound 1 µM,0.313
same,relative viability,Etoposide + Phenformin; first compound 0.01 µM,0.333
same,relative viability,Etoposide + Phenformin; first compound 0.03162 µM,0.341
same,relative viability,Etoposide + Phenformin; first compound 0.1 µM,0.275
same,relative viability,Etoposide + Phenformin; first compound 0.3162 µM,0.233
same,relative viability,Etoposide + Phenformin; first compound 1 µM,0.207
same,relative viability,Bleomycin + Crizotinib; first compound 0.01 µM,0.528
same,relative viability,Bleomycin + Crizotinib; first compound 0.03162 µM,0.571
same,relative viability,Bleomycin + Crizotinib; first compound 0.1 µM,0.419
same,relative viability,Bleomycin + Crizotinib; first compound 0.3162 µM,0.326
same,relative viability,Bleomycin + Crizotinib; first compound 1 µM,0.252
same,relative viability,Bleomycin + OSI-027; first compound 0.01 µM,0.403
same,relative viability,Bleomycin + OSI-027; first compound 0.03162 µM,0.497
same,relative viability,Bleomycin + OSI-027; first compound 0.1 µM,0.482
same,relative viability,Bleomycin + OSI-027; first compound 0.3162 µM,0.393
same,relative viability,Bleomycin + OSI-027; first compound 1 µM,0.353
